Target: T1, SMS2 (sphingomyelin synthase 2) (Mus musculus, UniProt Q9D4B1)
T1 construct: gene Sgms2; native enzyme in liver homogenate of SMS1 KO mice
T1 sequence (Q9D4B1 1-365): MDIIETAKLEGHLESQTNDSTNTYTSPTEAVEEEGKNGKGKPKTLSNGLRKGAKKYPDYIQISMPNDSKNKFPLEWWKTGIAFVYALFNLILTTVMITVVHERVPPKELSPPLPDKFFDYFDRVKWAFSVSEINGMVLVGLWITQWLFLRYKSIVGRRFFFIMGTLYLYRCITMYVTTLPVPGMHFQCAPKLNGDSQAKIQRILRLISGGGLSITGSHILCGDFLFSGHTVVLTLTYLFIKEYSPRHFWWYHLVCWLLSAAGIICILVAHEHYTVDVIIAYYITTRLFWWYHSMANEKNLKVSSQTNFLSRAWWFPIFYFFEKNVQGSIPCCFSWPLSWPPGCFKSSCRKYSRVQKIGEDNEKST
Test: SMS activity assay in SMS1 KO mouse liver homogenate
Type: cell-based

## N#CC(Nc1ccccc1)c1ccccc1OCc1ccccc1 (stereo not shown) [Dy105, 2-(2-(benzyloxy)phenyl)-2-(phenylamino) acetonitrile]
  SMS activity assay in SMS1 KO mouse liver homogenate: we found the compound can inhibit SMS2 but not SMS1 activity (Fig. 3A and B) in the liver

From publication PMC4102531, “Pharmacologic Inhibition of Sphingomyelin Synthase (SMS) Activity Reduces Apolipoprotein-B Secretion from Hepatocytes and Attenuates Endotoxin-Mediated Macrophage Inflammation” (PLoS ONE, 2014)
